Like-named read-outs stand apart in the source and are kept apart here.
Tests used:
DLD1 WT cells = assay: 7-day cell viability assay (CellTiter-Glo), DLD1 parental (WT); assay type: cell-based, human; conditions: 7-day CellTiter-Glo, n=2
Procedure: (§1) Cell lines DLD1 WT and DLD1 BRCA2 (−/−) (Horizon Discovery Cat No. HD PAR-008 and HD-105-007) were plated in 384-well culture plates at seeding densities of 100cells/50 ul/well and 200 cells/50 uL/well respectively. The seeding densities are pre-determined from the growth curve kinetics performed to ensure log linear phase of cell growth for these 2 cell lines. These assay plates are then placed in the incubator at 37° C., 5% CO2, relative humidity >90% for a few hours before addition of test compounds. Compounds are dispensed using the Tecan HPD300 or Echo based on the plate map in the appropriate wells of the 384-well plates. The cells are treated with nine-point dose response with 3-fold serial dilutions of test compounds starting at 10 uM top concentration. After addition of the test compounds, the plates are incubated at 37° C., 5% CO2, relative humidity >90% for 7 days. CellTiter-Glo (Promega Cat. No. G7573), ATP detection reagent is prepared according to manufacturer's specifications. Cell assay plates are removed from incubator and bring to room temperature (RT) by letting them sit at bench top for at least 15 min. Using the MultiDrop liquid handler or a multichannel pipette, 35 μL/well of CTG is added and the plates are then placed shakes for 5 seconds, RT.

DLD1 BRCA2 (−/−) cells = assay: 7-day cell viability assay (CellTiter-Glo), DLD1 BRCA2 (−/−); assay type: cell-based, human; conditions: 7-day CellTiter-Glo, n=2, read-out: Viability IC50 (uM) DLD1 BRCA2 null
Procedure: as §1

Molecule	IC50 (DLD1 WT cells) [µM]	IC50 (DLD1 BRCA2 (−/−) cells) [µM]	IC50 (DLD1 WT cells; Homo sapiens, DLD-1, 168 h) [µM]	IC50 (DLD1 BRCA2 (−/−) cells; Homo sapiens, DLD-1, 168 h) [µM]
2′-chloro-N-(5-(6-chloro-5-fluoropicolinoyl)-5,6-dihydro-4H-pyrrolo[3,4-d]thiazol-2-yl)-5′-methoxy-6-methyl-[4,4′-bipyridine]-3-carboxamide [Example 388]	2 to 5	0.001 to 0.1	–	–
4-(5-Cyano-2-methoxyphenyl)-N-(5-(3-(difluoromethyl)-4-methoxybenzoyl)-5,6-dihydro-4H-pyrrolo[3,4-d]thiazol-2-yl)-6-methylnicotinamide [Example 486]	≥ 10	0.001 to 0.1	–	–
COc1cnc(Cl)cc1-c1cc(C)ncc1C(=O)Nc1nc2c(s1)CN(C(=O)c1ncc(Cl)c(C(F)F)n1)C2 (racemic)	–	–	≥ 10	0.25 to 0.5
COc1cnc(Cl)cc1-c1cc(C)ncc1C(=O)Nc1nc2c(s1)CN(C(=O)c1ncc(C(F)F)nc1C)C2 (racemic)	–	–	≥ 10	0.25 to 0.5
COc1cnc(Cl)cc1-c1cc(C)ncc1C(=O)Nc1nc2c(s1)CN(C(=O)c1cc(C)cc(Cl)n1)C2 [Example 392, 2′-chloro-N-(5-(6-chloro-4-methylpicolinoyl)-5,6-dihydro-4H-pyrrolo[3,4-d]thiazol-2-yl)-5′-methoxy-6-methyl-[4,4′-bipyridine]-3-carboxamide]	–	–	≥ 10	0.1 to 0.25
COc1cnc(Cl)cc1-c1cc(C)ncc1C(=O)Nc1nc2c(s1)CN(C(=O)c1cccc(OC)c1Cl)C2 [Example 396, 2′-chloro-N-(5-(2-chloro-3-methoxybenzoyl)-5,6-dihydro-4H-pyrrolo[3,4-d]thiazol-2-yl)-5′-methoxy-6-methyl-[4,4′-bipyridine]-3-carboxamide]	–	–	≥ 10	0.001 to 0.1
COc1ncc(Cl)cc1-c1cc(C)ncc1C(=O)Nc1nc2c(s1)CN(C(=O)c1ccc(C(F)F)cn1)C2 [Example 446, 5-Chloro-N-(5-(5-(difluoromethyl)picolinoyl)-5,6-dihydro-4H-pyrrolo[3,4-d]thiazol-2-yl)-2-methoxy-6′-methyl-[3,4′-bipyridine]-3′-carboxamide]	–	–	2 to 5	0.001 to 0.1
COc1cnc(Cl)cc1-c1cc(C)ncc1C(=O)Nc1nc2c(s1)CN(C(=O)c1ccc(C#N)cn1)C2 [Example 578]	–	–	5 to 10	0.001 to 0.1
COc1cnc(Cl)cc1-c1cc(C)ncc1C(=O)Nc1nc2c(s1)CN(C(=O)c1cc(C)c(C#N)cn1)C2 [Example 611]	–	–	≥ 10	0.001 to 0.1
COc1cnc(Cl)cc1-c1cc(C)ncc1C(=O)Nc1nc2c(s1)CN(C(=O)c1nc(C)c(C(F)F)cc1F)C2 [Example 621]	–	–	≥ 10	0.001 to 0.1
COc1cnc(Cl)cc1-c1cc(C)ncc1C(=O)Nc1nc2c(s1)CN(C(=O)c1nc(C)c(Cl)nc1C)C2 [Example 622]	–	–	≥ 10	0.001 to 0.1
COc1cnc(Cl)cc1-c1cc(C)ncc1C(=O)Nc1nc2c(s1)CN(C(=O)c1c(C)cc(C(F)(F)F)nc1C)C2 [Example 649]	–	–	≥ 10	0.001 to 0.1
COc1cnc(Cl)cc1-c1cc(C)ncc1C(=O)Nc1nc2c(s1)CN(C(=O)c1cc(C)c(C(F)F)cn1)C2 [Example 903, 2′-chloro-N-(5-(5-(difluoromethyl)-4-methylpicolinoyl)-5,6-dihydro-4H-pyrrolo[3,4-d]thiazol-2-yl)-5′-methoxy-6-methyl-[4,4′-bipyridine]-3-carboxamide]	–	–	≥ 10	0.001 to 0.1
COc1cnc(Cl)cc1-c1cc(C)ncc1C(=O)Nc1nc2c(s1)CN(C(=O)c1ncc(C)nc1OC)C2 [Example 905, 2′-chloro-5′-methoxy-N-(5-(3-methoxy-5-methylpyrazine-2-carbonyl)-5,6-dihydro-4H-pyrrolo[3,4-d]thiazol-2-yl)-6-methyl-[4,4′-bipyridine]-3-carboxamide]	–	–	≥ 10	0.001 to 0.1
COc1cnc(Cl)cc1-c1cc(C)ncc1C(=O)Nc1nc2c(s1)CN(C(=O)c1ncc(C(F)F)c(OC)n1)C2 [Example 907, 2′-chloro-N-(5-(5-(difluoromethyl)-4-methoxypyrimidine-2-carbonyl)-5,6-dihydro-4H-pyrrolo[3,4-d]thiazol-2-yl)-5′-methoxy-6-methyl-[4,4′-bipyridine]-3-carboxamide]	–	–	≥ 10	0.001 to 0.1
COc1cnc(Cl)cc1-c1cc(C)ncc1C(=O)Nc1nc2c(s1)CN(C(=O)[C@H]1CC[C@H](C(F)F)CC1)C2 [Example 908, 2′-chloro-N-(5-((1r,4r)-4-(difluoromethyl)cyclohexane-1-carbonyl)-5,6-dihydro-4H-pyrrolo[3,4-d]thiazol-2-yl)-5′-methoxy-6-methyl-[4,4′-bipyridine]-3-carboxamide]	–	–	≥ 10	0.001 to 0.1
COc1cnc(Cl)cc1-c1cc(C)ncc1C(=O)Nc1nc2c(s1)CN(C(=O)[C@H]1CC[C@@H](C(F)F)CC1)C2 [Example 909, 2′-chloro-N-(5-((1s,4s)-4-(difluoromethyl)cyclohexane-1-carbonyl)-5,6-dihydro-4H-pyrrolo[3,4-d]thiazol-2-yl)-5′-methoxy-6-methyl-[4,4′-bipyridine]-3-carboxamide]	–	–	≥ 10	0.001 to 0.1
Cc1cc(-c2cc(Cl)ncc2OC(F)F)c(C(=O)Nc2nc3c(s2)CN(C(=O)c2ncc(Cl)cn2)C3)cn1 [Example 910, 2′-chloro-N-(5-(5-chloropyrimidine-2-carbonyl)-5,6-dihydro-4H-pyrrolo[3,4-d]thiazol-2-yl)-5′-(difluoromethoxy)-6-methyl-[4,4′-bipyridine]-3-carboxamide]	–	–	≥ 10	0.001 to 0.1
Cc1cc(-c2cc(Cl)ncc2OC(F)F)c(C(=O)Nc2nc3c(s2)CN(C(=O)c2nc(C(F)F)ccc2Cl)C3)cn1 [Example 922, 2′-chloro-N-(S-(3-chloro-6-(difluoromethyl)picolinoyl)-5,6-dihydro-4H-pyrrolo[3,4-d]thiazol-2-yl)-5′-(difluoromethoxy)-6-methyl-[4,4′-bipyridine]-3-carboxamide]	–	–	≥ 10	0.001 to 0.1
COc1cnc(Cl)cc1-c1cc(C)ncc1C(=O)Nc1nc2c(s1)CN(C(=O)c1ccc(C(F)(F)F)nc1Cl)C2 [Example 923, 2′-chloro-N-(5-(2-chloro-6-(trifluoromethyl)nicotinoyl)-5,6-dihydro-4H-pyrrolo[3,4-d]thiazol-2-yl)-5′-methoxy-6-methyl-[4,4′-bipyridine]-3-carboxamide]	–	–	≥ 10	0.001 to 0.1
COc1cnc(Cl)cc1-c1cc(C)ncc1C(=O)Nc1nc2c(s1)CN(C(=O)[C@H]1CC[C@@H](OC(F)(F)F)CC1)C2 [Example 925]	–	–	5 to 10	0.001 to 0.1
COc1cnc(Cl)cc1-c1cc(C)ncc1C(=O)Nc1nc2c(s1)CN(C(=O)c1nccc(Cl)c1C(F)F)C2 [Example 926, 2′-chloro-N-(5-(4-chloro-3-(difluoromethyl)picolinoyl)-5,6-dihydro-4H-pyrrolo[3,4-d]thiazol-2-yl)-5′-methoxy-6-methyl-[4,4′-bipyridine]-3-carboxamide]	–	–	≥ 10	0.001 to 0.1
COc1cnc(Cl)cc1-c1cc(C)ncc1C(=O)Nc1nc2c(s1)CN(C(=O)c1nc(Cl)c(C(F)F)cc1F)C2 [Example 927, 2′-chloro-N-(5-(6-chloro-5-(difluoromethyl)-3-fluoropicolinoyl)-5,6-dihydro-4H-pyrrolo[3,4-d]thiazol-2-yl)-5′-methoxy-6-methyl-[4,4′-bipyridine]-3-carboxamide]	–	–	≥ 10	0.001 to 0.1
COc1cnc(Cl)cc1-c1cc(C)ncc1C(=O)Nc1nc2c(s1)CN(C(=O)c1nc(C(F)(F)F)ccc1F)C2 [Example 936, 2′-chloro-N-(5-(3-fluoro-6-(trifluoromethyl)picolinoyl)-5,6-dihydro-4H-pyrrolo[3,4-d]thiazol-2-yl)-5′-methoxy-6-methyl-[4,4′-bipyridine]-3-carboxamide]	–	–	≥ 10	0.001 to 0.1
COc1cnc(Cl)cc1-c1cc(C)ncc1C(=O)Nc1nc2c(s1)CN(C(=O)c1nc(C(F)(F)F)ccc1OC)C2 [Example 937, 2′-chloro-5′-methoxy-N-(5-(3-methoxy-6-(trifluoromethyl)picolinoyl)-5,6-dihydro-4H-pyrrolo[3,4-d]thiazol-2-yl)-6-methyl-[4,4′-bipyridine]-3-carboxamide]	–	–	≥ 10	0.001 to 0.1
Cc1cc(-c2cc(Cl)cnc2OC(F)F)c(C(=O)Nc2nc3c(s2)CN(C(=O)c2ccc(C(F)F)cn2)C3)cn1 [Example 938, 5-chloro-2-(difluoromethoxy)-N-(5-(5-(difluoromethyl)picolinoyl)-5,6-dihydro-4H-pyrrolo[3,4-d]thiazol-2-yl)-6′-methyl-[3,4′-bipyridine]-3′-carboxamide]	–	–	≥ 10	0.001 to 0.1
COc1cnc(Cl)cc1-c1cc(C)ncc1C(=O)Nc1nc2c(s1)CN(C(=O)c1nc(Cl)c(C(F)F)cc1C)C2 [Example 940, 2′-chloro-N-(5-(6-chloro-5-(difluoromethyl)-3-methylpicolinoyl)-5,6-dihydro-4H-pyrrolo[3,4-d]thiazol-2-yl)-5′-methoxy-6-methyl-[4,4′-bipyridine]-3-carboxamide]	–	–	≥ 10	0.001 to 0.1

Source: US20250230171A1 (MOMA Therapeutics, Inc., priority 2023, published 2025)
